In article PMC9203748, “Metabolism and antioxidant activity of SlGSTD1 in Spodoptera litura as a detoxification enzyme to pyrethroids” (Scientific Reports, 2022) one finds Km and IC50 data, which are given here for five molecules.

Where two headings read alike, the source gives them in different places.

Experiment [1] addresses T1, SlGSTD1 (Spodoptera litura, UniProt A0A9J7IUS4).
T1 construct: gene LOC111355915
T1 sequence (A0A9J7IUS4 1-221): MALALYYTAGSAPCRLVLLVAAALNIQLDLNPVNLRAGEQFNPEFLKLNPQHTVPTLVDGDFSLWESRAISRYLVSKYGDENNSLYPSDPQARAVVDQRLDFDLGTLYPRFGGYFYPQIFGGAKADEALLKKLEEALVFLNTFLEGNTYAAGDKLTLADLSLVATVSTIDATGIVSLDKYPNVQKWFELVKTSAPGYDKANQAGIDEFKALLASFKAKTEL
Kind of experiment: GSH conjugation, A340, Michaelis-Menten fit. As to conditions: GSH 30 μL of 100 μmol mL^−1 in about 1.1 mL; PBS 0.1 mol L^−1 pH 7.0. Type of experiment: biochemical.

In experiment [2] the target is T1, SlGSTD1. Description: inhibition of GSH-CDNB conjugation, A340. The experiment is classed as biochemical.

As a reminder, the Km is the concentration of substrate that gives half-maximal velocity. The IC50 is the midpoint of a concentration-inhibition curve.

For `O=[N+]([O-])c1ccc(Cl)c([N+](=O)[O-])c1` [CDNB], at SlGSTD1 [1], the Km stood at 1680 ± 110 µM. Take `CCOC(=O)/C=C\C(=O)OCC` [DEM, reference compound]: the IC50 on SlGSTD1 [2] (read-out: IC50) amounted to 2.1 ± 0.3 µM.

In the case of `CCOP(=S)(OCC)Oc1nc(Cl)c(Cl)cc1Cl` [chlorpyrifos], half-maximal inhibition against SlGSTD1 [2] (IC50) required 170 ± 15.2 µM. Same read-out and setting: then `CC1(C)C(/C=C(\Cl)C(F)(F)F)C1C(=O)OC(C#N)c1cccc(Oc2ccccc2)c1` (centres unmarked) [cyhalothrin], with 124 ± 10.3 µM. In turn, `CC(C)C(C(=O)OC(C#N)c1cccc(Oc2ccccc2)c1)c1ccc(Cl)cc1` (centres unmarked) [fenvalerate] showed an IC50 against SlGSTD1 [2] of 21.6 ± 3.2 µM.
